# Laboratory results: patent publication US8735411B2, “Macrocyclic benzofused pyrimidine derivatives” (AbbVie Inc., priority 2006, dated 2014)
# Target: histamine H4 receptor (Homo sapiens, UniProt Q9H3N8)
# Test: In vitro histamine H4 potency in FLIPR (Ca2+ flux, HEK-293 cells coexpressing Gαqi5)
# Assay type: cell-based
# Design: expressed in transfected cells
# Details: Kb for antagonists and inverse agonists, EC50 for partial agonists
# Summary of the method: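 Fluo-4-loaded cells read on FLIPR for intracellular Ca2+ rise after compound addition, with pre-addition fluorescence subtracted. Peak responses per concentration expressed as % of the full-agonist histamine response. Concentration–response fits give Kb for antagonists/inverse agonists and EC50 for partial agonists.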
# histamine H4 receptor, sequence (Q9H3N8 whole entry): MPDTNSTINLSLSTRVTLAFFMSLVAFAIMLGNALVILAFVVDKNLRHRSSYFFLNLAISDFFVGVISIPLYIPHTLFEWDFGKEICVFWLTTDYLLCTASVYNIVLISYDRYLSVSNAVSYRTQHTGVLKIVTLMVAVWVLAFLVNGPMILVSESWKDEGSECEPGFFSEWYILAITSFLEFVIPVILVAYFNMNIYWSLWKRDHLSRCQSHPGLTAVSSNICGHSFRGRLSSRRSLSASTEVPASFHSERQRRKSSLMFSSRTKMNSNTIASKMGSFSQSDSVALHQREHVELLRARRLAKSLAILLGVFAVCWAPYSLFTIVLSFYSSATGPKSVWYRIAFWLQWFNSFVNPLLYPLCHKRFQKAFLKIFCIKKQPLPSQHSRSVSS
row,SMILES,Potency [nM]
1,"CN1CCCC(Oc2nc(N)nc3c2CCCc2ccccc2-3)C1 (stereo not shown) [Example 69, 4-(1-Methyl-piperidin-3-yloxy)-6,7-dihydro-5H-benzo[6,7]cyclohepta[1,2-d]pyrimidin-2-ylamine]",3162
2,"Nc1nc(NCCCN2CCCCC2)c2c(n1)-c1ccccc1CCC2 [Example 113, N^4-(3-Piperidin-1-yl-propyl)-6,7-dihydro-5H-benzo[6,7]cyclohepta[1,2-d]pyrimidine-2,4-diamine]",4266
3,"CN1[C@@H]2CC[C@H]1CC(Nc1nc(N)nc3c1CCCc1ccccc1-3)C2 (stereo partly drawn) [Example 66, N^4-[(1R,5S)-8-methyl-8-azabicyclo[3.2.1]oct-3-yl]-6,7-dihydro-5H-benzo[6,7]cyclohepta[1,2-d]pyrimidine-2,4-diamine]",17
4,"CN[C@@H]1CCN(c2nc(N)nc3c2SCCc2ccccc2-3)C1 [Example 107, 4-((R)-3-Methylamino-pyrrolidin-1-yl)-6,7-dihydro-5-thia-1,3-diaza-dibenzo[a,c]cyclohepten-2-ylamine]",11
5,"Nc1nc2c(c(N3CCNCC3)n1)CCOc1ccccc1-2 [Example 30, 4-Piperazin-1-yl-5,6-dihydro-7-oxa-1,3-diaza-dibenzo[a,c]cyclohepten-2-ylamine]",166
6,"COC(=O)c1nc2c(c(N3CC4CCCNC4C3)n1)CCCc1ccccc1-2 (stereo not shown) [Example 133, 4-(Octahydro-pyrrolo[3,4-b]pyridin-6-yl)-6,7-dihydro-5-benzo[6,7]cyclohepta[1,2-d]pyrimidine-2-carboxylic acid methyl ester]",14454
7,"Nc1nc2c(c(N3CC[C@H](N)C3)n1)CCCCCc1ccccc1-2 [Example 25, 4-((S)-3-Amino-pyrrolidin-1-yl)-6,7,8,9-tetrahydro-5H-1,3-diaza-dibenzo[a,c]cyclononen-2-ylamine]",646
8,"N#Cc1ccc2c(c1)OCCc1c-2nc(N)nc1N1CC2CCCNC2C1 (stereo not shown) [Example 104, 2-Amino-4-octahydro-pyrrolo[3,4-b]pyridin-6-yl-5,6-dihydro-7-oxa-1,3-diaza-dibenzo[a,c]cycloheptene-9-carbonitrile]",141
9,"CN1CCC(Oc2nc(N)nc3c2CCCc2ccccc2-3)CC1 [Example 68, 4-(1-Methyl-piperidin-4-yloxy)-6,7-dihydro-5H-benzo[6,7]cyclohepta[1,2-d]pyrimidin-2-ylamine]",15
10,"Nc1nc(NC2CCCNC2)c2c(n1)-c1ccccc1CCC2 (stereo not shown) [Example 121, N^4-piperidin-3-yl-6,7-dihydro-5H-benzo[6,7]cyclohepta[1,2-d]pyrimidine-2,4-diamine]",407
11,"CN(C)[C@@H]1CCN(c2nc(N)nc3c2CCCc2ccccc2-3)C1 [Example 76, 4-((R)-3-Dimethylamino-pyrrolidin-1-yl)-6,7-dihydro-5H-benzo[6,7]cyclohepta[1,2-d]pyrimidin-2-ylamine]",55
12,"CC(=O)Nc1nc2c(c(N3CCNCC3)n1)CCCc1ccccc1-2 [Example 83, N-(4-Piperazin-1-yl-6,7-dihydro-5H-benzo[6,7]cyclohepta[1,2-d]pyrimidin-2-yl)-acetamide]",2951
13,"Nc1nc2c(c(N3CC4CCCNC4C3)n1)CCCc1cc3c(cc1-2)CCCC3 (stereo not shown) [Example 98, 4-(Octahydro-pyrrolo[3,4-b]pyridin-6-yl)-6,7,9,10,11,12-hexahydro-5H-1,3-diaza-benzo[3,4]cyclohepta[1,2-b]naphthalen-2-ylamine]",52
14,"CNC1CN(c2nc(N)nc3c2CC(C)c2ccccc2-3)C1 (stereo not shown) [Example 2, 6-Methyl-4-(3-methylamino-azetidin-1-yl)-5,6-dihydro-benzo[h]quinazolin-2-ylamine]",44
15,"CN1CC[C@H](Oc2nc(N)nc3c2CCCc2ccccc2-3)C1 [Example 71, 4-((S)-1-Methyl-pyrrolidin-3-yloxy)-6,7-dihydro-5H-benzo[6,7]cyclohepta[1,2-d]pyrimidin-2-ylamine]",263
16,"Nc1nc2c(c(N3CCNCC3)n1)SCCc1ccccc1-2 [Example 109, 4-Piperazin-1-yl-6,7-dihydro-5-thia-1,3-diaza-dibenzo[a,c]cyclohepten-2-ylamine]",87
17,"CN[C@@H]1CCN(c2nc(N)nc3c2CCOc2cc(OC)ccc2-3)C1 [Example 50, 9-methoxy-4-[(3R)-3-(methylamino)pyrrolidin-1-yl]-5,6-dihydro[1]benzoxepino[5,4-d]pyrimidin-2-amine]",56
18,"COC(=O)c1ccc2c(c1)OCCc1c-2nc(N)nc1N1CC2CCCNC2C1 (stereo not shown) [Example 108, 2-Amino-4-octahydro-pyrrolo[3,4-b]pyridin-6-yl-5,6-dihydro-7-oxa-1,3-diaza-dibenzo[a,c]cycloheptene-9-carboxylic acid methyl ester]",53
19,"Nc1nc(NC2CCCC3CNCC32)c2c(n1)-c1ccccc1CCC2 (stereo not shown) [Example 122, N^4-(Octahydro-isoindol-4-yl)-6,7-dihydro-5H-benzo[6,7]cyclohepta[1,2-d]pyrimidine-2,4-diamine]",1288
20,"c1cncc(CNc2nc3c(c(N4CC5CCCNC5C4)n2)CCCc2ccccc2-3)c1 (stereo not shown) [Example 92, 6-(2-pyridin-3-ylmethylamino-6,7-dihydro-5H-benzo[6,7]cyclohepta[1,2-d]pyrimidin-4-yl)octahydro-1H-pyrrolo[3,4-b]pyridine]",2570
21,"CN[C@@H]1CCN(c2nc(N)nc3c2[S+]([O-])CCc2ccccc2-3)C1 (stereo partly drawn) [Example 112, 4-((R)-3-Methylamino-pyrrolidin-1-yl)-5-oxo-6,7-dihydro-5-thia-1,3-diaza-dibenzo[a,c]cyclohepten-2-ylamine]",2455
22,"CN(C)CCOc1nc(N)nc2c1CCCc1ccccc1-2 [Example 74, 4-(2-Dimethylamino-ethoxy)-6,7-dihydro-5H-benzo[6,7]cyclohepta[1,2-d]pyrimidin-2-ylamine]",219
23,"CN[C@@H]1CCN(c2nc(N)nc3c2CCCc2ccc(F)cc2-3)C1 [Example 11, 10-Fluoro-4-(3-(R)-methylamino-pyrrolidin-1-yl)-6,7-dihydro-5H-benzo[6,7]cyclohepta[1,2-d]pyrimidin-2-ylamine]",7.8
24,"CN[C@@H]1CCN(c2nc(N)nc3c2COc2ccccc2-3)C1 [Example 9, 1-(3-(R)-Methylamino-pyrrolidin-1-yl)-10H-9-oxa-2,4-diaza-phenanthren-3-ylamine]",32
25,"Nc1nc2c(c(N3C[C@@H]4CN[C@@H]4C3)n1)CCCc1ccccc1-2 [Example 120, (1S,5S)-4-(3,6-Diaza-bicyclo[3.2.0]hept-3-yl)-6,7-dihydro-5H-benzo[6,7]cyclohepta[1,2-d]pyrimidin-2-ylamine]",603
26,"Nc1nc(OC2CCNCC2)c2c(n1)-c1ccccc1CCC2 [Example 72, 4-(Piperidin-4-yloxy)-6,7-dihydro-5H-benzo[6,7]cyclohepta[1,2-d]pyrimidin-2-ylamine]",1097
27,"Nc1nc2c(c(N3CC4(CCCNC4)C3)n1)CCCc1ccccc1-2 [Example 77, 4-(2,6-Diaza-spiro[3.5]non-2-yl)-6,7-dihydro-5H-benzo[6,7]cyclohepta[1,2-d]pyrimidin-2-ylamine]",9333
28,"Nc1nc2c(c(N3CC[C@H]4CNC[C@H]43)n1)CCCCCc1ccccc1-2 [Example 27, 4-((3aS,6aS)-Hexahydro-pyrrolo[3,4-b]pyrrol-1-yl)-6,7,8,9-tetrahydro-5H-1,3-diaza-dibenzo[a,c]cyclononen-2-ylamine]",16596
